The results in this text go back to patent US4845029A, “Method for the determination of sarcosine creatine or creatinine” (Boehringer Mannheim GmbH, priority 1985, dated 1989).

Structures are written as SMILES.

What all share (assay type): biochemical
Test [1] has as its system known sarcosine oxidase from Bacillus sp. (comparison enzyme). Nature of the test: KM value for sarcosine in stressing reagent a. To be noted: pH 7.9, detergent-containing. The protocol: (§1) The KM values for sarcosine (phosphate buffer; TES buffer), measured at 25° C. in various stressing reagents, are 2 to 3 mmol/litre. The Vmax is about 6 U/mg. protein. The followig Table I gives, for various preparations of the enzyme according to the present invention, the KM values for sarcosine measured at 25 and at 37° C. For comparison, there are given the corresponding values for the known Bacillus enzyme.
(§2) 0.15 mole potassium phosphate or 0.1 mole TES/KOH (pH 7.9), 8.6 mmole 2,4,6-tribromo-3-hydroxybenzoic acid, 0.8 mmole 4-aminoantipyrine, 10 μmole potassium ferrocyanide, 5 mmole sodium cholate, 0.5% Lutensol ON 50, 0.2% sodium azide, 0.5 mmole Titriplex III, 2000 U lipase, 2000 U peroxidase and 10000 U ascorbate oxidase, per liter. [Lutensol ON 50 ^R is obtained from BASF AG and is n-decanol-polyglycolether having an average of 5 ethylene glycol units per molecule i.e. CH3 -(CH2)9 -(OCH2 -CH2)5 -OH. Titriplex III is the disodium salt of ethylenediaminetetracetic acid and can be obtained from Merck.]

Test [2] relates to sarcosine oxidase (E.C. 1.5.3.1) from Chainia purpurogena (DSM 43 156), pure enzyme. The test is described as follows: KM value for sarcosine in stressing reagent a. To be noted: pH 7.9, detergent-containing. As for the experimental part: as §1, §2
Test [3] has as its system sarcosine oxidase from Chainia purpurogena, crude extract supernatant. The test is described as follows: KM value for sarcosine in stressing reagent a. To be noted: 37 °C, pH 7.9, detergent-containing. The protocol:
as §1, §2

For test [4], the system named is sarcosine oxidase from Streptomyces flocculus (DSM 40 327), crude extract supernatant. Nature of the test: KM value for sarcosine in stressing reagent a. To be noted: 37 °C, TES buffer, pH 7.9, detergent-containing. As for the experimental part: as §1, §2
Test [5] deals with sarcosine oxidase according to the present invention, obtainable from Streptomycetaceae. Nature of the test: KM and Vmax for sarcosine. The conditions noted are these: substrate sarcosine. The protocol:
In contradistinction thereto, the KM values of the known sarcosine oxidases which are sufficiently stable for these determinations are, under these conditions, abou 16 to 20 mmol/liter.
as §1

Turning to `CNCC(=O)O` [sarcosine], the Km in test [1] (25 °C, TES buffer) was 20 mM; in test [1] (25 °C, phosphate buffer), 16 mM; in test [1] (37 °C, TES buffer), 20 mM; in test [1] (37 °C, phosphate buffer), 18 mM; in test [2] (25 °C, TES buffer), 2.8 mM; in test [2] (25 °C, phosphate buffer), 2 mM. In addition, the Km in test [2] (37 °C, TES buffer) was 3 mM; in test [2] (37 °C, phosphate buffer), 3.5 mM; in test [3] (TES buffer), 3 mM; in test [3] (phosphate buffer), 3 mM; in test [4], 3.5 mM. The Vmax entry in test [5] is on record as “about 6 U/mg. protein”.
